In US12502398B2, “Combination therapy for treating cancer” (AstraZeneca AB, priority 2019, dated 2025):

Key:
[1] = test system: Mouse MC38 colorectal cancer cells expressing OVA antigen; test: MC38-OVA syngeneic tumor model, tumor volume; type: in vivo; settings: COMPOUND 12 30 mg/kg orally twice per day, Anti-PDL1 10 mg/kg ip twice per week
Protocol: (§1) Mouse MC38 colorectal cancer cells expressing OVA antigen (5×10^5 cells/mouse), were subcutaneously implanted in the right flank of 6 to 8 weeks old female C57BL/6 mice. On day 6 post transplant, groups of mice were treated with vehicle (water), 30 mg/kg COMPOUND 12, 10 mg/kg Anti-PDL1 (MEDI4736), or the combination. COMPOUND 12 was formulated in water and dosed orally twice per day. MEDI4736 was formulated in 1×PBS and dosed intraperitoneally twice per week for 2 weeks. Tumor length and width was measured by caliper and tumor volume was calculated using the formula (length×width^2)*π/6 then reported as tumor volume as calculated.

[2] = test system: Mouse CT.26 WT colorectal cancer cells; test: CT.26 WT syngeneic tumor model, tumor volume; type: in vivo; settings: COMPOUND 12 30 mg/kg orally twice per day, Anti-PDL1 10 mg/kg ip twice per week
Protocol: as §1, with “CT.26 WT” for “MC38”, “cells” for “cells expressing OVA antigen”, “Balb/C” for “C57BL/6”, “implant,” for “transplant,”, “combination. Additional groups were treated with 10 mg/kg Anti-NKG2A (monalizumab), in combination with either COMPOUND 12 or MEDI4736, or a triplicate of COMPOUND 12, monalizumab and MEDI4736.” for “combination.”, “weeks. Monalizumab was formulated in 1×PBS and dosed intravenously twice per week for 1.5 weeks (3 doses).” for “weeks.”

[3] = test system: Mouse Lewis lung (LL/2) carcinoma cells; test: LL/2 syngeneic tumor model with TLR3 agonist, tumor volume; type: in vivo; settings: Poly I:C 7.5 mg/kg ip 3x/week; for efficacy / monotherapy activity (in words): COMPOUND 12 30 mg/kg po BID
Protocol: Mouse Lewis lung (LL/2) carcinoma cells (1×10^6 cells/mouse), were subcutaneously implanted in the right flank of 6 to 8 weeks old C57BL/6 mice. On day 6 post implant, groups of mice were treated with vehicle (water), 30 mg/kg COMPOUND 12, 7.5 mg/kg TLR3 agonist (Poly I:C), or the combination. COMPOUND 12 was formulated in water and dosed orally twice per day. Poly I:C was formulated in water and dosed intraperitoneally 3×/week. Tumor length and width was measured by caliper and tumor volume was calculated using the formula (length×width^2)*π/6 then reported as tumor volume as calculated.

[4] = test system: MC38-OVA model; test: In vivo PD study of immune cell changes in MC38-OVA model (flow cytometry); set-up: species or system mouse; settings: draining lymph node
Protocol: For monitoring immune cell changes tumors were harvested either four, ten or fourteen days post treatment. Tumors were excised and mechanically minced. Tumors were then incubated with tumor dissociation enzyme mix (Miltenyi Biotec) at 37° C. for 40 min in gentle MACS instrument (Miltenyi biotec). Single cell suspension were made and stained for a variety of immune cell markers to determine the immune cell changes post treatment using multicolor flow cytometry. Furthermore, the functional response of CD8+ cytotoxic T cells was evaluated by ex vivo restimulation with phorbol 12-myristate-13-acetate (PMA) and ionomycin prior to analysis.

[5] = test system: LL/2 murine lung carcinoma cells; test: LL/2 syngeneic lung tumor model with radio therapy; type: in vivo, mouse; settings: COMPOUND 12 30 mg/kg twice daily, radiation 5 gray on days 6 and 9 after implant
Protocol: Six-eight week old BL/6 mice (Charles River Labs) were implanted with 1e6 LL/2 murine lung carcinoma cells subcutaneously on the right flank. At 6 days post implant, animals were randomized by mean cage tumor volume into four groups (n=12/ group). Group 1 was anesthetized for mock irradiation on days 6 and 9, and dosed with vehicle (water) PO, BID starting on day 6. Group 2 was anesthetized and given 5 Gy of radiation targeted to the tumor on days 6 and 9. Group 3 was administered AZ8400 at 30 mg/kg PO bid starting on Day 6, and Group 4 was administered AZ8400 at 30 mg/kg starting on Day 6, and anesthetized and irradiated on days 6 and 9. Body weight and tumor volume were measured twice weekly until tumors were >1500 mm3, at which point mice were humanely sacrificed

CC(C)[C@H](N)C(=O)N[C@H]1CN[C@@](CCCCB(O)O)(C(=O)O)C1 [COMPOUND 12, (2R,4R)-4-((S)-2-amino-3-methylbutanamido)-2-(4-boronobutyl)pyrrolidine-2-carboxylic acid]
efficacy (in words) [1]: modestly efficacious | efficacy (in words) [2]: modestly efficacious | efficacy / monotherapy activity (in words) [3]: modestly efficacious | IFNg producing CD8+ T cells in the periphery (draining LN) [4]: increase | TNFa producing CD8+ T cells in the periphery (draining LN) [4]: increase | tumor growth inhibition [5]: about 30%

Anti-PDL1: MEDI4736, also known as durvalumab, an anti-PD-L1 antibody [reference compound]
efficacy (in words) [1]: modest efficacy | efficacy (in words) [2]: modest efficacy

polyinosinic:polycytidylic acid [Poly I:C]
efficacy / monotherapy activity (in words) [3]: moderate monotherapy activity | TGI on day 16 ([3]; day 16): 76%
